This is an account of results in paper PMC8112869, “Therapeutic inhibition of keratinocyte TRPV3 sensory channel by local anesthetic dyclonine” (eLife, 2021).

One test deals with T1, TRPV1 (Rattus norvegicus, UniProt O35433).
T1 construct: expressed in transfected cells; host or cells: HEK 293T
As to the kind of experiment: Whole-cell recording of capsaicin-activated TRPV1 in HEK 293T cells. In kind it is cell-based. An excerpt: (§1) The WT mouse TRPV3 (mTRPV3), human TRPV3 (hTRPV3), rat TRPV1, rat TRPV2, rat TRPM8, and mouse TRPA1 cDNAs were generously provided by Dr. Feng Qin (State University of New York at Buffalo, Buffalo, USA). The GFP-mTRPV3 WT and the mutants (mTRPV3-G573S and mTRPV3-G573C) in pcDNA4/TO vector were gifts from Dr. Michael X Zhu (The University of Texas Health Science Center at Houston, Houston, USA). The WT fTRPV3 was kindly provided by Dr. Makoto Tominaga (Department of Physiological Sciences, SOKENDAI, Okazaki, Japan). All mutations were made using the overlap-extension polymerase chain reaction method as previously described ([Tian et al., 2019]). The resulting mutations were then verified by DNA sequencing. […]
(§2) Conventional whole-cell and excised patch-clamp recording methods were used. […] For a subset of recordings, currents were amplified using an Axopatch 200B amplifier (Molecular Devices, Sunnyvale, CA) and recorded through a BNC-2090/MIO acquisition system (National Instruments, Austin, TX) using QStudio developed by Dr. Feng Qin at State University of New York at Buffalo. […] As determined by the conductance tests, the solution around a patch under study was fully controlled by the application of a flow rate of 100 μl/min or greater. […]

In a further test the target is T2, TRPV2 (Rattus norvegicus, UniProt Q9WUD2).
T2 construct: expressed in transfected cells; host or cells: HEK 293T
T2 sequence (Q9WUD2 whole entry): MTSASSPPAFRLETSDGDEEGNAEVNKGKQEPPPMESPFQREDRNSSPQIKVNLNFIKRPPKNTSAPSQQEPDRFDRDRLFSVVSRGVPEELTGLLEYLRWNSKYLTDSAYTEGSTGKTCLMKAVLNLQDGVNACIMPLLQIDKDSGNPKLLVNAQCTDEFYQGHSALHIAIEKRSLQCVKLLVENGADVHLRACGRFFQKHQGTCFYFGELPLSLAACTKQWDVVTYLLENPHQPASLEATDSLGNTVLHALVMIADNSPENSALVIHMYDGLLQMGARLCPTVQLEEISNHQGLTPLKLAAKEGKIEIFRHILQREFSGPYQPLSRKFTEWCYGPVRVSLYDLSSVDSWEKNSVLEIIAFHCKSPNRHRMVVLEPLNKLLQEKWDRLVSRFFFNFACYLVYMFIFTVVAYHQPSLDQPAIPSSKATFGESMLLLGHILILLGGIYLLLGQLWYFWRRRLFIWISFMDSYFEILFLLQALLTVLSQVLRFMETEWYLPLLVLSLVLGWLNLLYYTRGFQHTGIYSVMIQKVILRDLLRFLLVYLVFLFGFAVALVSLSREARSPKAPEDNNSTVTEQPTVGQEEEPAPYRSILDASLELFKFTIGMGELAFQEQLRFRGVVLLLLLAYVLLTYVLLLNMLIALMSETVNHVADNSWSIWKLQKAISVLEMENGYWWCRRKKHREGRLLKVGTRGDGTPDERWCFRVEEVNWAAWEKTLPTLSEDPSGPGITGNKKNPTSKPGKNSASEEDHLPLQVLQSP
As to the kind of experiment: Whole-cell recording of 2-APB-activated TRPV2 in HEK 293T cells. In kind it is cell-based.
From the text: as §1, §2

For the next test, the target named is T3, TRPA1 (Mus musculus, UniProt Q8BLA8).
T3 construct: expressed in transfected cells; host or cells: HEK 293T
T3 sequence (Q8BLA8 whole entry): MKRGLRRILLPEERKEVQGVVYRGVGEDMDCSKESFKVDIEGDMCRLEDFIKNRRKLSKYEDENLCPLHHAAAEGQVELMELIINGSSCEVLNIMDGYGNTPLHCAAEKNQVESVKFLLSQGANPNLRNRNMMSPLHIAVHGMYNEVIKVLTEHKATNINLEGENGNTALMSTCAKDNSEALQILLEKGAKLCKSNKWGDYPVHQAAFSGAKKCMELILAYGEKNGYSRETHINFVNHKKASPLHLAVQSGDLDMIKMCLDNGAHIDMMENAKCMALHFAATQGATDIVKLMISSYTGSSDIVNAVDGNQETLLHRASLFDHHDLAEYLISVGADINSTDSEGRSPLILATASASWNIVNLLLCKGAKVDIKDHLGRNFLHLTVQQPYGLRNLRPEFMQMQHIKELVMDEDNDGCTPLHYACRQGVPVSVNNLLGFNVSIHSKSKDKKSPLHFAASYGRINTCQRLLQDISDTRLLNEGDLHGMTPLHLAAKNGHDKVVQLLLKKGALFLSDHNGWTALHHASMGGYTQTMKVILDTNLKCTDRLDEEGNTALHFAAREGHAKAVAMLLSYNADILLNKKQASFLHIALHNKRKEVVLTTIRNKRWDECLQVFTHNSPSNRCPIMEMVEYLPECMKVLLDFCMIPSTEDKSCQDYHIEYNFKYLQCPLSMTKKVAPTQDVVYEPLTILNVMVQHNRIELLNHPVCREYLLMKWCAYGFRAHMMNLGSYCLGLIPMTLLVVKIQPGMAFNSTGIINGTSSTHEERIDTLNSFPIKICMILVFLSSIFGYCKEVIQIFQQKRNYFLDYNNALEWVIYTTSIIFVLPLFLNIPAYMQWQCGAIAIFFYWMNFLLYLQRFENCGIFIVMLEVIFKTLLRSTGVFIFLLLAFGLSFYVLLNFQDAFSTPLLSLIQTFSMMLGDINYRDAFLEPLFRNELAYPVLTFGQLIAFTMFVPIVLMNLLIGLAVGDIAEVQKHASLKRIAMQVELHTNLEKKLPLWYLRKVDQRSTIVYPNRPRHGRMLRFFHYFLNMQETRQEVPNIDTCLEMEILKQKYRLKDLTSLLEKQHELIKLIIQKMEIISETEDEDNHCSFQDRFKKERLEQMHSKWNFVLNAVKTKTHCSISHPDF
As to the kind of experiment: Whole-cell recording of AITC-activated TRPA1 in HEK 293T cells. In kind it is cell-based.
From the text: as §1, §2

The target in a further test is frog TRPV3 (fTRPV3) (Xenopus tropicalis, UniProt F6UZP3). As to the kind of experiment: Whole-cell recording of 2-APB-evoked currents in fTRPV3-expressing HEK 293T cells. It counts as cell-based.
frog TRPV3 (fTRPV3), sequence (F6UZP3 entry or part of it): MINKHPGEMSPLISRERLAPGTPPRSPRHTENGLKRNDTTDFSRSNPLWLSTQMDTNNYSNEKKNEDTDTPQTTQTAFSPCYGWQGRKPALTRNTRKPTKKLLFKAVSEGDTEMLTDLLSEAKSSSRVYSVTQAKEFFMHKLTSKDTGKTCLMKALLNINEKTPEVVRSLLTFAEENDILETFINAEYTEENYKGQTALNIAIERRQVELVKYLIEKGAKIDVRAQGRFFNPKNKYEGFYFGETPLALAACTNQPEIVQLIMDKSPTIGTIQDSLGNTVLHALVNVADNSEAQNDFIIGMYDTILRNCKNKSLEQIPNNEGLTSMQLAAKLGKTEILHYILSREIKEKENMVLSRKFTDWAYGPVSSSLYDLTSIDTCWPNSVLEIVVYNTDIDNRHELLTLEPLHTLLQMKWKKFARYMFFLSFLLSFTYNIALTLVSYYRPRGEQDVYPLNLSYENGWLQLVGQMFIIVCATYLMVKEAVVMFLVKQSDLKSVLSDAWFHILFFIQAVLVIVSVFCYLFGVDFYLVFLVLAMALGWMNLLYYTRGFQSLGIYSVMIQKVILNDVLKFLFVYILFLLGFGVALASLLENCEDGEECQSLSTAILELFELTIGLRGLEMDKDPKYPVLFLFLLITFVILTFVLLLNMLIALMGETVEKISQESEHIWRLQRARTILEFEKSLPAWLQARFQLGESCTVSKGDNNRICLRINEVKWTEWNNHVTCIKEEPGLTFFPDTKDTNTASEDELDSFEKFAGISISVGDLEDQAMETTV
From the text: as §1, §2

The next test addresses T4, TRPV3 (G573S) (Mus musculus, UniProt Q8K424, G573S).
T4 construct: expressed in transfected cells; host or cells: T-Rex 293
As to the kind of experiment: Whole-cell currents of TRPV3 (G573S) expressed in T-Rex 293 cells. It counts as cell-based.
From the text: as §1, §2

Another test concerns C57B/6 mice. As to the kind of experiment: Carvacrol-induced itch-scratching behavior in mice. In kind it is in vivo, mouse. On the procedure: To assess itch-scratching behaviors, the hair of the rostral part of the mouse’s right neck was shaved using an electric hair clipper 24 hr before the start of experiments. Trpv3^-/- mice have been described previously ([Wang et al., 2021]). Scratching behaviors were recorded on video. The number of itch-scratching bouts was counted through video playback analysis. One scratching bout was defined as an episode in which a mouse lifted its right hind limb to the injection site and scratched continuously for any time length until this limb was returned to the floor or mouth ([Wilson et al., 2013]). All behavioral experiments were conducted in a double-blind manner. […] [Sun and Dong, 2016]).

In a further test the target is T5, TRPV3 I637A (Mus musculus, UniProt Q8K424, I637A).
T5 construct: expressed in transfected cells; host or cells: HEK 293T
T5 sequence (Q8K424 whole entry I637A): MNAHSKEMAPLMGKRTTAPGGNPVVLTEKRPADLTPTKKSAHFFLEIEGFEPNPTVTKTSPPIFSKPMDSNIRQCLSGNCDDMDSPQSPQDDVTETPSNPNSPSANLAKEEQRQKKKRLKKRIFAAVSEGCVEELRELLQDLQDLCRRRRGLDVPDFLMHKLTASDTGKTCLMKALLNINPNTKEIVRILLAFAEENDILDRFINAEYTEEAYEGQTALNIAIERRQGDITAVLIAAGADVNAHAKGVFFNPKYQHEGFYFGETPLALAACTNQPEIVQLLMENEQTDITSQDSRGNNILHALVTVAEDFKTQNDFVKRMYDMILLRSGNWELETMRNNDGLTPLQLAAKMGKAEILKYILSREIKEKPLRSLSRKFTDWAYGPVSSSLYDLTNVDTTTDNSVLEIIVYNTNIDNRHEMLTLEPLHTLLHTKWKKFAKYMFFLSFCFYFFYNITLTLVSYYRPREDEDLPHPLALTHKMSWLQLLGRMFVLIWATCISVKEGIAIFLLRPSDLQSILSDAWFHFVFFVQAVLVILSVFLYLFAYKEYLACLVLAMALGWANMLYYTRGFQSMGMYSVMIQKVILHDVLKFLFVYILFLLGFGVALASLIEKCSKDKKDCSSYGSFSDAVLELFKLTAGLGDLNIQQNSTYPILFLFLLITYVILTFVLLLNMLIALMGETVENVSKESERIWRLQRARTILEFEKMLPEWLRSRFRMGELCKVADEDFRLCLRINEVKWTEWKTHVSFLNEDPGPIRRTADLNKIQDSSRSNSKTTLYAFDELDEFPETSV
As to the kind of experiment: Whole-cell recording of TRPV3 mutant I637A in HEK 293T cells. It counts as cell-based. Conditions: 2-APB (1 mM)-evoked, –60 mV, read-out: IC50 for inhibition of TRPV3 mutant.
From the text: as §1, §2

In another test the target is T6, TRPV3 F666A (Mus musculus, UniProt Q8K424, F666A).
T6 construct: expressed in transfected cells; host or cells: HEK 293T
T6 sequence (Q8K424 whole entry F666A): as the sequence (Q8K424 whole entry I637A) above, with A637I, F666A counted along it
As to the kind of experiment: Whole-cell recording of TRPV3 mutant F666A in HEK 293T cells. It counts as cell-based. Conditions: 2-APB (1 mM)-evoked, –60 mV, read-out: IC50 for inhibition of TRPV3 mutant.
From the text: as §1, §2

Another test concerns the target T7, TRPV3 I674A (Mus musculus, UniProt Q8K424, I674A).
T7 construct: expressed in transfected cells; host or cells: HEK 293T
As to the kind of experiment: Whole-cell recording of TRPV3 mutant I674A in HEK 293T cells. In kind it is cell-based. Conditions: 2-APB (1 mM)-evoked, –60 mV, read-out: IC50 for inhibition of TRPV3 mutant.
From the text: as §1, §2

A further test concerns the target T8, TRPV3 L642A (Mus musculus, UniProt Q8K424, L642A).
T8 construct: expressed in transfected cells; host or cells: HEK 293T
As to the kind of experiment: Whole-cell recording of TRPV3 mutant L642A in HEK 293T cells. As to conditions: 2-APB (1 mM)-evoked, –60 mV, read-out: IC50 for inhibition of TRPV3 mutant. It counts as cell-based.
From the text: as §1, §2

The next test deals with T9, TRPV3 I659A (Mus musculus, UniProt Q8K424, I659A).
T9 construct: expressed in transfected cells; host or cells: HEK 293T
T9 sequence (Q8K424 whole entry I659A): as the sequence (Q8K424 whole entry I637A) above, with A637I, I659A counted along it
As to the kind of experiment: Whole-cell recording of TRPV3 mutant I659A in HEK 293T cells. It counts as cell-based. As to conditions: 2-APB (1 mM)-evoked, –60 mV, read-out: IC50 for inhibition of TRPV3 mutant.
From the text: as §1, §2

SMILES strings stand for the structures.

T4 sequence (Q8K424 whole entry G573S): as the sequence (Q8K424 whole entry I637A) above, with G573S, A637I counted along it
T1 sequence (O35433 whole entry): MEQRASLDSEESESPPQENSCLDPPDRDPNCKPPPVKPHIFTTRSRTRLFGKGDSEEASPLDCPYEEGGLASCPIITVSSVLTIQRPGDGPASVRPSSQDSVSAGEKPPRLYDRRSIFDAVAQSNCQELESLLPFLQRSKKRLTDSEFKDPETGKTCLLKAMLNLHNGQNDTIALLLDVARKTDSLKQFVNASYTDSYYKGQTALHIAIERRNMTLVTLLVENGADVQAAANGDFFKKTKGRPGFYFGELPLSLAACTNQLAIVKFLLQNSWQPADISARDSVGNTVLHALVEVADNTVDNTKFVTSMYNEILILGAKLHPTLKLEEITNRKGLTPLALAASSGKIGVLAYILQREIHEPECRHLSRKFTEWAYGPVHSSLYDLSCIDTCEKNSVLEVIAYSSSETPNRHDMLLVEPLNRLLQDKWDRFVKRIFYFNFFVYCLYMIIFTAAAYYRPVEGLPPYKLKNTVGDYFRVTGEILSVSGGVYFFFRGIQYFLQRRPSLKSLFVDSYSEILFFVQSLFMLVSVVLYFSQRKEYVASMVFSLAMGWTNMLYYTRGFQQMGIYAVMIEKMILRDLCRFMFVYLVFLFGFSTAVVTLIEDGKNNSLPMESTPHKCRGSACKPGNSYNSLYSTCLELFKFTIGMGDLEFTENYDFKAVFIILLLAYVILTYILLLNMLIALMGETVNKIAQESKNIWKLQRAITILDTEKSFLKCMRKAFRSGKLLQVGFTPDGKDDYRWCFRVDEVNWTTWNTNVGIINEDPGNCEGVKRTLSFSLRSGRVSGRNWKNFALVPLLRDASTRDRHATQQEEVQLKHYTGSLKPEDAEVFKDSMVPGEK
T7 sequence (Q8K424 whole entry I674A): as the sequence (Q8K424 whole entry I637A) above, with A637I, I674A counted along it
T8 sequence (Q8K424 whole entry L642A): as the sequence (Q8K424 whole entry I637A) above, with A637I, L642A counted along it

For the compound `CCCCOc1ccc(C(=O)CCN2CCCCC2)cc1` [dyclonine], the “Hill coefficient nH” value on TRPV1 was determined as 2.0 ± 0.31; at TRPV2, 2.9 ± 0.50; at TRPA1 it was 1.3 ± 0.15; on frog TRPV3 (fTRPV3), 1.6 ± 0.34. Further, the “reduction in current amplitude” value was 2% ± 1% at TRPV1 (10 μM dyclonine, capsaicin-activated); 6% ± 1% on TRPV2 (10 μM dyclonine, 2-APB-activated); 5% ± 1% on TRPA1 (10 μM dyclonine, AITC-activated). Further, the IC50 stood at 12.3 µM on frog TRPV3 (fTRPV3) (3 mM 2-APB-evoked, –60 mV, read-out: IC50 on inhibition of fTRPV3 currents); 6.1 ± 0.43 µM at TRPV3 I637A; 414 ± 15.7 µM on TRPV3 F666A; 15.1 ± 2.1 µM on TRPV3 I674A; 0.25 ± 0.02 µM at TRPV3 L642A; 0.56 ± 0.06 µM at TRPV3 I659A. Also, the “reduction of spontaneous activities” value at TRPV3 (G573S) (10 μM dyclonine, –60 mV, leak subtracted with 20 μM RR) is 74% ± 3%. Moreover, on TRPV3 (G573S) (presence of dyclonine), the “300 μM 2-APB-evoked responses, of control level” value was 10% ± 2%. Also, the “scratching bouts over 30 min” value is listed as 130.0 ± 20.3 in the test on C57B/6 mice (50 μl dyclonine 1 μM intradermal 30 min before carvacrol (0.1%, 50 μl)); 82.0 ± 15.0 with C57B/6 mice (50 μl dyclonine 10 μM intradermal 30 min before carvacrol (0.1%, 50 μl)); 18.0 ± 8.0 with C57B/6 mice (50 μl dyclonine 50 μM intradermal 30 min before carvacrol (0.1%, 50 μl)).
